Publication PMC9981206 (Cancer Research Communications, 2022)
Several values for one entry are separate records, joined by “and”; a condition that tells them apart may be missing. Equal values may be shown once. Read-outs that look alike come from different tables or passages of the source.

Experiments:
[1] = system: YAP signaling; test: Immunoblot and real-time qRT-PCR, YAP signaling in cancer cell lines; assay type: cell-based, human; conditions: 10 nmol/L, 24 hours
Description: (§1) The cell cultures were kept below 20 passages (∼10 weeks) and routinely monitored (upon thawing and monthly) for Mycoplasma infections with MycoAlert Mycoplasma Detection Kit (Lonza). All cell lines were authenticated by short tandem repeat profiling to confirm their identity (Eurofins). TNKS1/2 and PARP1 biochemical assays ([27, 32]), luciferase-based WNT/β-catenin signaling pathway reporter assay ([22, 27, 32]), anti-proliferative assays, and NCI-60 tumor cell line panel screen ([7]), immunoblot analyses ([7, 32, 39]), RNA isolation, and real-time qRT-PCR ([7, 27, 39, 40]) were performed as previously described.
(§2) Prostate (Pro) and central nervous system (CNS). […] Mean ± SD values for data from one representative experiment of more than three repeated assays, each with six replicates, are shown. C, Evaluation of WNT/β-catenin signaling. Left, immunoblots of cytoplasmic AXIN1 and nuclear active form of β-catenin [non-phospho (Ser33/37/Thr41)] and total β-catenin. Lamin B1 loading controls are duplicated for OVCAR-4 immunoblots. Right, real-time RT-qPCR analysis of the WNT/β-catenin signaling target gene AXIN2. […] Immunoblots show representative data from two or more independent experiments. Actin (cytoplasm) and lamin B1 (nucleus) were used as loading controls. […]

[2] = Dose escalation experiment (acute toxicity, MTD); conditions: 500, 1,000, 1,500, or 2,000 mg/kg oral twice daily, single male CD-1 mice
Protocol: The dose escalation experiment was performed in single male CD-1 mice (CRL: 022, RRID: IMSR_CRL: 022, Charles River) at BSL BIOSERVICE/Eurofins using their standard protocol. […] Body weight was recorded daily.

[3] = system: WNT/β-catenin signaling; conditions: HEK293 cells, mean ± SD; read-out: WNT reporter IC50; cited from earlier work
[4] = in vivo; assay type: in vivo, CB17-SCID mice; conditions: CB17-SCID, mouse, doses 0.33–10 mg/kg oral twice daily, 4 hours post last dosing, mass spectrometry
Protocol: (§3) The experiment using COLO 320DM (CCL-220, RRID: CVCL_0219, ATCC) xenografts was carried out as previously described ([40]) at Reaction Biology. […] Next, the mice were sacrificed, approximately 4 hours after first dose of the day. Protein and RNA extracts were prepared from four moderately sized tumors within each treatment group.

[5] = system: COLO 320DM xenografts; test: in vivo; assay type: in vivo, CB17-SCID mice; conditions: for body weight changes: tumor-bearing CB17-SCID mice
Protocol: as §3

[6] = Mouse pharmacokinetic analysis; assay type: in vivo; conditions: CD-1 mice; for MRT last: read-out: MRT(0-24); for CL/F: read-out: Cl or Cl/F (converted); for bioavailability: read-out: F (fraction absorbed/bioavailability)
Protocol: The pharmacokinetic analyses were performed according to the standard protocols of Medicilon as previously described ([22, 27, 32]). […] The same vehicle and oral–twice daily treatment regime were used for all other experiments. Samples were collected after 15 and 30 minutes plus 1, 2, 4, and 6 hours for group 1, and after 6.5, 8, 10, and 24 hours for group 2.

[7] = system: WNT/β-catenin signaling; test: Immunoblot and real-time qRT-PCR, WNT/β-catenin signaling in cancer cell lines; assay type: cell-based, human; conditions: 10 nmol/L, 24 hours
Description: as §1
Prostate (Pro) and central nervous system (CNS). […] Mean ± SD values for data from one representative experiment of more than three repeated assays, each with six replicates, are shown. C, Evaluation of WNT/β-catenin signaling. Left, immunoblots of cytoplasmic AXIN1 and nuclear active form of β-catenin [non-phospho (Ser33/37/Thr41)] and total β-catenin. Lamin B1 loading controls are duplicated for OVCAR-4 immunoblots. Right, real-time RT-qPCR analysis of the WNT/β-catenin signaling target gene AXIN2. […] Immunoblots show representative data from two or more independent experiments. Actin (cytoplasm) and lamin B1 (nucleus) were used as loading controls. Boxplots show median, first, and third quartiles and maximum and minimum whiskers for combined data from three independent experiments with three replicates each. Stippled lines (black) depict control mean values = 1. Two-tailed t tests: ***, P < 0.001; **, P < 0.01; and *, P < 0.05. Mann–Whitney rank sum tests: ‡, P < 0.01. ns., not significant. D, Evaluation of YAP signaling. Left, immunoblots of cytoplasmic AMOTL2 (top) and nuclear YAP and TAZ (bottom). Right, real-time RT-qPCR analysis of the YAP signaling target genes AMOTL2, CCN1, and […]. For D and E, lamin B1 loading controls are duplicated for RKO immunoblots (YAP/TAZ and CCND1). E, Evaluation of MYC signaling. Left, immunoblots of nuclear MYC and CCND1. Lamin B1 loading controls are duplicated for ABC-1 immunoblots. […]

[8] = system: COLO 320DM colon carcinoma cells; conditions: cited from earlier work
[9] = system: ABC-1 cells; test: MTS colorimetric cell growth assay, ABC-1; assay type: cell-based; conditions: Homo sapiens, ABC-1, 120 h
Description: as §1, §2

[10] = system: UO-31 cells; test: MTS colorimetric cell growth assay, UO-31; assay type: cell-based, human
Description: as §1, §2

[11] = target: PARP1 (Homo sapiens, UniProt P09874); conditions: biochemical assay; cited from earlier work
[12] = system: RKO colon carcinoma cells; conditions: 5 days of cultivation; cited from earlier work
[13] = system: MYC signaling; test: Immunoblot and real-time qRT-PCR, MYC signaling in cancer cell lines; assay type: cell-based, human; conditions: 10 nmol/L, 24 hours, all TNKSi-sensitive cell lines
Description: as §1, §2

[14] = mouse, plasma, 0.4 mg/kg IV BID
[15] = mouse, plasma, 100 mg/kg PO BID

Chain of PARP1 (P09874 whole entry): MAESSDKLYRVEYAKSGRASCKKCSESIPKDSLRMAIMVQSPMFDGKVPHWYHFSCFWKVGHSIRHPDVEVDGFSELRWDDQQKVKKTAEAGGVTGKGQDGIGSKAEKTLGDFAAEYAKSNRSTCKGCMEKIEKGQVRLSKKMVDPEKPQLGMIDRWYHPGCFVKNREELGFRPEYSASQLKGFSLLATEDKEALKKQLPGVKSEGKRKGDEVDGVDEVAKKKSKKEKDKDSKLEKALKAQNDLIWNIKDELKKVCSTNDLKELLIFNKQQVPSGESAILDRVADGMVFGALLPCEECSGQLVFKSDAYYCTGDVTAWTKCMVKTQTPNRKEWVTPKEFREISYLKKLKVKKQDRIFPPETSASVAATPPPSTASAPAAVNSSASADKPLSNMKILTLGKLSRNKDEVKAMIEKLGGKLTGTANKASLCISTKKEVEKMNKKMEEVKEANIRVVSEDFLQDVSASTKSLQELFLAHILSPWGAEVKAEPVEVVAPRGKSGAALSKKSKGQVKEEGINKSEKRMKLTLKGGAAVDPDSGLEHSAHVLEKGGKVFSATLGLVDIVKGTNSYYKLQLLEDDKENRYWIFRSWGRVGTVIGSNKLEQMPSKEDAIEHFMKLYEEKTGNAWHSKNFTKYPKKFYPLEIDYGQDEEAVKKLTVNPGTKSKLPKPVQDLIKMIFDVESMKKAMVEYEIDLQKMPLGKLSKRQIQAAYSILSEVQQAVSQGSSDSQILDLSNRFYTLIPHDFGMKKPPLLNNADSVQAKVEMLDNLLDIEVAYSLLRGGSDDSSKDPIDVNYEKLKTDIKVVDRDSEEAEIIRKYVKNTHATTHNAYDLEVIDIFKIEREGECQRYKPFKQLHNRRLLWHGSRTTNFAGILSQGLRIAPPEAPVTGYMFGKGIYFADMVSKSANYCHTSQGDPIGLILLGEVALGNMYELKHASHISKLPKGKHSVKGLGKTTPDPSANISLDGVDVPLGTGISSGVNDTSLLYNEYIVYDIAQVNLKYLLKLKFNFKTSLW

Which “transcription of YAP signaling target genes AMOTL2, CCN1 and CCN2” value ([1]; all TNKSi-sensitive cell lines) does the source give for CCOc1ccc(-c2nnc([C@H]3C[C@H](NC(=O)c4cccc5nccnc45)C3)n2-c2ccccc2F)nc1 [OM-153] here?
Its value is “reduced transcription”.

What about the AMOTL2 protein ([1]; all cell lines) of the same molecule?
The AMOTL2 protein was “cytoplasmic stabilization”.

And the “clinical signs of systemic toxicity” value [2]?
The value was “No clinical signs of systemic toxicity”.

What about the IC50 [3] of the same molecule?
The IC50 was 0.63 nM.

And the concentration at 4 h ([4]; plasma)?
Its concentration at 4 h is over 10 nM.

What about the concentration at 4 h ([4]; tumor) of the same molecule?
Its concentration at 4 h is over 10 nM.

What about the body weight changes ([5]; 10 mg/kg oral twice daily) of the same molecule?
Its body weight changes is “no changes in body weights that would be suggestive for toxicity”.

What about the body weight changes ([5]; 3.3 and 1 mg/kg oral twice daily) of the same molecule?
The body weight changes was “statistically significant body weight reductions”.

And the “β-catenin protein and WNT/β-catenin signaling target genes DKK1, APCDD1, NKD1 in tumors” value ([5]; immunoblot and real-time qRT-PCR, oral twice daily)?
Its value is “dose-dependently reduced”.

And the “AXIN1 and AXIN2 proteins in the tumor specimen” value ([5]; immunoblot, oral twice daily)?
Its value is “stabilized”.

And the Cmax2 ([6]; 10 mg/kg PO BID)?
Its Cmax2 is 2,700 ng/mL.

What about the “Cmax2 (plasma concentration after the second dose)” value ([6]; 10 mg/kg oral twice daily) of the same molecule?
The value was 5300 nM.

And the “plasma concentration after 24 hours” value ([6]; 10 mg/kg oral twice daily)?
The value was “below the detection threshold”.

And the Cmax2 ([6]; 100 mg/kg PO BID)?
The Cmax2 was 20,000 ng/mL.

What about the “Cmax2 (plasma concentration after the second dose)” value ([6]; 100 mg/kg oral twice daily) of the same molecule?
The value was 39200 nM.

And the half-life [6, 14]?
Its half-life is 0.59 h.

And the MRT last [6, 14]?
Its MRT last is 3.6 h.

And the half-life ([6]; mouse, plasma, 2 mg/kg IV BID)?
Its half-life is 0.56 h.

What about the MRT last ([6]; mouse, plasma, 2 mg/kg IV BID) of the same molecule?
Its MRT last is 3.5 h.

What about the half-life ([6]; mouse, plasma, 10 mg/kg PO BID) of the same molecule?
The half-life was 2.7 h.

What about the CL/F ([6]; mouse, plasma, 10 mg/kg PO BID) of the same molecule?
Its CL/F is 16.7 mL/min/kg.

What about the bioavailability ([6]; mouse, plasma, 10 mg/kg PO BID) of the same molecule?
Its bioavailability is 100%.

And the MRT last ([6]; mouse, plasma, 10 mg/kg PO BID)?
The MRT last was 5.8 h.

What about the half-life [6, 15] of the same molecule?
The half-life was 5.9 h.

What about the CL/F [6, 15] of the same molecule?
The CL/F was 18.3 mL/min/kg.

What about the bioavailability [6, 15] of the same molecule?
The bioavailability was 130%.

What about the MRT last [6, 15] of the same molecule?
The MRT last was 8.4 h.

What about the concentration at 24 h ([6]; mouse, plasma, 100 mg/kg oral twice daily, read-out: plasma concentration after 24 hours) of the same molecule?
The concentration at 24 h was 1900 ng/mL and 3.7 µM.

And the “transcription of AXIN2” value ([7]; COLO 320DM, OVCAR-4 and ABC-1 cells)?
The value was “significantly reduced”.

And the AXIN1 protein ([7]; all cell lines (COLO 320DM, UO-31, OVCAR-4, ABC-1, RKO))?
The AXIN1 protein was “stabilized”.

What about the “transcriptionally active form of β-catenin in the nuclei” value ([7]; only in COLO 320DM and ABC-1 cells) of the same molecule?
The value was “reduction”.

And the “COLO320DM GI25” value ([8]; 5 days of cultivation)?
The value was 2.5 nM.

What about the GI50 ([8]; 5 days of cultivation, read-out: COLO320DM GI50) of the same molecule?
Its GI50 is 10 nM.

What about the “COLO 320DM in vitro GI50 value” ([8]; same value as 10 nmol/L) of the same molecule?
The value was 5.1 ng/mL.

What about the GI50 [9] of the same molecule?
The GI50 was 2 nM.

What about the GI50 ([10]; Homo sapiens, UO-31, 120 h) of the same molecule?
Its GI50 is over 10 nM.

And the GI25 ([10]; UO-31, 5 days)?
The GI25 was 3.5 nM.

What about the IC50 [11] of the same molecule?
Its IC50 is over 100000 nM.

What about the GI50 [12] of the same molecule?
The GI50 was over 10000 nM.

And the “RKO GI25” value [12]?
The value was > 10,000 nmol/L.

What about the “MYC and CCND1 protein and transcription of MYC and CCND1” value [13] of the same molecule?
Its value is “decreased”.
